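Protocol summary: plate cells (96-well), add compound at 5 concentrations, incubate 48 h, interpolate endpoints linearly. TGI denotes the concentration required for complete inhibition of growth.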
What was measured:
Experiment in all cases: inhibition of tumour cell growth, NCI panel, 48 h
CCRF-CEM leukemia = tested on: CCRF-CEM leukemia
UO-31 renal = tested on: UO-31 renal
MOLT-4 leukemia = tested on: MOLT-4 leukemia
HS 578T breast = tested on: HS 578T breast
NCI-H522 lung = tested on: NCI-H522 lung
SK-OV-3 ovarian = tested on: SK-OV-3 ovarian
TK-10 renal = tested on: TK-10 renal
PC-3 prostate = tested on: PC-3 prostate
MCF7 breast = tested on: MCF7 breast
SN12C renal = tested on: SN12C renal
K-562 leukemia = tested on: K-562 leukemia
COLO 205 colon = tested on: COLO 205 colon
SNB-75 CNS = tested on: SNB-75 CNS
NCI-H226 lung = tested on: NCI-H226 lung

Compound | TGI (CCRF-CEM leukemia) | TGI (UO-31 renal) | TGI (MOLT-4 leukemia) | TGI (HS 578T breast) | TGI (NCI-H522 lung) | TGI (SK-OV-3 ovarian) | TGI (TK-10 renal) | TGI (PC-3 prostate) | TGI (MCF7 breast) | TGI (SN12C renal) | TGI (K-562 leukemia) | TGI (COLO 205 colon) | TGI (SNB-75 CNS) | TGI (NCI-H226 lung)
COc1ccc(N2C(=O)C3c4[nH]c5ccc(OCc6ccccc6)cc5c4C4CCC(C(C)C)CC4C3C2=O)cc1 (centres undefined) | 31.3 µM | > 100 µM | > 71.7 µM | > 49.8 µM | 73.4 µM | 43 µM | > 80.4 µM | > 100 µM | > 100 µM | > 100 µM | > 68.3 µM | > 100 µM | 10.4 µM | 42.9 µM
CC(C)(C)N=c1n(C(C)(C)C)oc(=O)n1-c1ccccc1 | > 50 µM | > 50 µM | > 50 µM | > 50 µM | > 50 µM | > 50 µM | > 50 µM | > 50 µM | > 50 µM | > 50 µM | > 50 µM | > 50 µM | > 50 µM | > 50 µM
O=C1Nc2ccc(Br)cc2/C1=C/C(=O)c1ccccc1 | 8.36 µM | 6.98 µM | > 26.4 µM | > 55.4 µM | 5.17 µM | 31.9 µM | 3.7 µM | 26.9 µM | 15.3 µM | 10.5 µM | > 100 µM | 3.97 µM | 32 µM | 43.8 µM
S=C(Nc1cccc(C2(N3CCCCC3)CCCCC2)c1)Nc1cccc(C2(N3CCCCC3)CCCCC2)c1 | 34 µM | 31.5 µM | 42.8 µM | > 100 µM | 41 µM | > 100 µM | 7.39 µM | > 100 µM | 64.1 µM | > 100 µM | 27.5 µM | 37.6 µM | 28.6 µM | 78.5 µM
OC1(c2ccc3ccccc3c2)c2c(c3ccccc3c3ccccc23)C2=NCCN21 (centres undefined) | > 100 µM | > 48.8 µM | > 100 µM | 24.2 µM | 24.8 µM | 42.8 µM | 35.4 µM | > 69.3 µM | 15.8 µM | > 63.6 µM | > 100 µM | 4.17 µM | 14.7 µM | > 100 µM
CCCCCCC(=O)OC[n+]1cccc(-c2c(COC(=O)NC(C)C)c(COC(=O)NC(C)C)c3n2CCC3)c1 | > 66.5 µM | 63.7 µM | > 80.7 µM | > 100 µM | 43.6 µM | > 100 µM | > 100 µM | > 100 µM | > 100 µM | > 100 µM | > 100 µM | > 100 µM | > 100 µM | > 100 µM
CCCN(CCC)C(=O)c1c(Cl)c2cccnc2n2c(C)cnc12 | > 100 µM | > 100 µM | > 100 µM | > 100 µM | > 100 µM | > 100 µM | > 100 µM | 98.6 µM | > 100 µM | > 100 µM | > 100 µM | > 100 µM | > 100 µM | > 100 µM
CC1=C(C(=O)NC(C)(C)C)CC(C(=O)NC(C)(C)C)C(C)N1 (centres undefined) | > 100 µM | > 100 µM | > 100 µM | > 100 µM | > 100 µM | > 100 µM | > 100 µM | > 100 µM | > 100 µM | > 100 µM | > 100 µM | > 100 µM | > 100 µM | > 100 µM
CSc1nc(-c2ccc(Cl)cc2)c(C#N)c(=O)[nH]1 | > 100 µM | > 100 µM | > 100 µM | > 100 µM | > 100 µM | > 100 µM | > 100 µM | > 100 µM | > 100 µM | > 100 µM | > 100 µM | > 100 µM | > 100 µM | > 100 µM
c1ccc(CSC(SCc2ccccc2)c2ccc3c(c2)OCO3)cc1 | > 10 µM | > 10 µM | > 10 µM | > 10 µM | > 10 µM | > 10 µM | > 10 µM | > 10 µM | > 10 µM | > 10 µM | > 10 µM | > 10 µM | > 10 µM | > 10 µM
Cc1cc(C(O)CNC(C)CCn2cnc3c2c(=O)n(C)c(=O)n3C)ccc1O (centres undefined) | > 100 µM | > 100 µM | > 100 µM | > 100 µM | > 100 µM | > 100 µM | > 100 µM | > 100 µM | > 100 µM | > 100 µM | > 100 µM | > 100 µM | > 100 µM | > 100 µM

Reference: PubChem BioAssay (NCI)
